Assays:
[1] = published clinical result; cited from earlier work
[2] = Plasma pharmacokinetics of TSU-68; assay type: in vivo, human (Japanese patients); conditions: for AUC(0-t) / Cmax / half-life / Tmax: human, oral

SMILES: Cc1[nH]c(/C=C2\C(=O)Nc3ccccc32)c(C)c1CCC(=O)O [TSU-68, (Z)-3-[2,4-dimethyl-5-(2-oxo-1,2-dihydro-indol-3-ylidenemethyl)-1H-pyrrol-3-yl]-propionic acid]
- AUC on day 56 compared with day 28 [1]: similar
- time to reach Cmax ([2]; after the first dose, plasma): ~ 2.5 h
- AUC(0-t) ([2]; plasma, 200 mg/m2, AUC0–t, 200 mg/m^2, Day 1, 3 patients, plasma): 45600 ± 21000 ng·h/mL
- AUC(0-t) ([2]; plasma, 200 mg/m2, AUC0–t, 200 mg/m^2, Day 8, 3 patients, plasma): 20600 ± 6200 ng·h/mL
- AUC(0-t) ([2]; plasma, 200 mg/m2, AUC0–t, 200 mg/m^2, Day 29, 3 patients, plasma): 21200 ± 9500 ng·h/mL
- Cmax ([2]; plasma, 200 mg/m2, Cmax, 200 mg/m^2, Day 1, 3 patients, plasma): 10600 ± 6040 ng/mL
- Cmax ([2]; plasma, 200 mg/m2, Cmax, 200 mg/m^2, Day 8, 3 patients, plasma): 6670 ± 3700 ng/mL
- Cmax ([2]; plasma, 200 mg/m2, Cmax, 200 mg/m^2, Day 29, 3 patients, plasma): 6350 ± 3780 ng/mL
- half-life ([2]; plasma, 200 mg/m2, T1/2, 200 mg/m^2, Day 1, 3 patients, plasma): 8.03 ± 3.82 h
- half-life ([2]; plasma, 200 mg/m2, T1/2, 200 mg/m^2, Day 8, 3 patients, plasma): 4.8 ± 2.14 h
- half-life ([2]; plasma, 200 mg/m2, T1/2, 200 mg/m^2, Day 29, 3 patients, plasma): 3.59 ± 1.71 h
- Tmax ([2]; plasma, 200 mg/m2, Tmax, 200 mg/m^2, Day 1, 3 patients, plasma): 2.3 ± 1.5 h
- Tmax ([2]; plasma, 200 mg/m2, Tmax, 200 mg/m^2, Day 8, 3 patients, plasma): 1.7 ± 0.3 h
- Tmax ([2]; plasma, 200 mg/m2, Tmax, 200 mg/m^2, Day 29, 3 patients, plasma): 1.7 ± 0.8 h
- AUC(0-t) ([2]; plasma, 400 mg/m2, AUC0–t, 400 mg/m^2, Day 1, 3 patients, plasma): 58200 ± 16800 ng·h/mL
- AUC(0-t) ([2]; plasma, 400 mg/m2, AUC0–t, 400 mg/m^2, Day 8, 3 patients, plasma): 25000 ± 9400 ng·h/mL
- AUC(0-t) ([2]; plasma, 400 mg/m2, AUC0–t, 400 mg/m^2, Day 29, 2 patients, plasma): 22900 ng·h/mL
- Cmax ([2]; plasma, 400 mg/m2, Cmax, 400 mg/m^2, Day 1, 3 patients, plasma): 11700 ± 3810 ng/mL
- Cmax ([2]; plasma, 400 mg/m2, Cmax, 400 mg/m^2, Day 8, 3 patients, plasma): 7210 ± 1060 ng/mL
- Cmax ([2]; plasma, 400 mg/m2, Cmax, 400 mg/m^2, Day 29, 2 patients, plasma): 6350 ng/mL
- half-life ([2]; plasma, 400 mg/m2, T1/2, 400 mg/m^2, Day 1, 3 patients, plasma): 7.89 ± 4.04 h
- half-life ([2]; plasma, 400 mg/m2, T1/2, 400 mg/m^2, Day 8, 3 patients, plasma): 3.53 ± 0.43 h
- half-life ([2]; plasma, 400 mg/m2, T1/2, 400 mg/m^2, Day 29, 2 patients, plasma): 5.36 h
- Tmax ([2]; plasma, 400 mg/m2, Tmax, 400 mg/m^2, Day 1, 3 patients, plasma): 2.5 ± 1.3 h
- Tmax ([2]; plasma, 400 mg/m2, Tmax, 400 mg/m^2, Day 8, 3 patients, plasma): 1.8 ± 0.3 h
- Tmax ([2]; plasma, 400 mg/m2, Tmax, 400 mg/m^2, Day 29, 2 patients, plasma): 1 h
- AUC(0-t) ([2]; plasma, 800 mg/m2, AUC0–t, 800 mg/m^2, Day 1, 6 patients, plasma): 83300 ± 32700 ng·h/mL
- AUC(0-t) ([2]; plasma, 800 mg/m2, AUC0–t, 800 mg/m^2, Day 8, 5 patients, plasma): 44600 ± 17300 ng·h/mL
- AUC(0-t) ([2]; plasma, 800 mg/m2, AUC0–t, 800 mg/m^2, Day 29, 4 patients, plasma): 30000 ± 16700 ng·h/mL
- Cmax ([2]; plasma, 800 mg/m2, Cmax, 800 mg/m^2, Day 1, 6 patients, plasma): 14600 ± 5650 ng/mL
- Cmax ([2]; plasma, 800 mg/m2, Cmax, 800 mg/m^2, Day 8, 5 patients, plasma): 10600 ± 1830 ng/mL
- Cmax ([2]; plasma, 800 mg/m2, Cmax, 800 mg/m^2, Day 29, 4 patients, plasma): 10700 ± 4690 ng/mL
- half-life ([2]; plasma, 800 mg/m2, T1/2, 800 mg/m^2, Day 1, 6 patients, plasma): 9.93 ± 6.01 h
- half-life ([2]; plasma, 800 mg/m2, T1/2, 800 mg/m^2, Day 8, 5 patients, plasma): 4.31 ± 2.72 h
- half-life ([2]; plasma, 800 mg/m2, T1/2, 800 mg/m^2, Day 29, 4 patients, plasma): 4.37 ± 4.05 h
- Tmax ([2]; plasma, 800 mg/m2, Tmax, 800 mg/m^2, Day 1, 6 patients, plasma): 2.8 ± 1.1 h
- Tmax ([2]; plasma, 800 mg/m2, Tmax, 800 mg/m^2, Day 8, 5 patients, plasma): 1.5 ± 0.4 h
- Tmax ([2]; plasma, 800 mg/m2, Tmax, 800 mg/m^2, Day 29, 4 patients, plasma): 2.1 ± 0.3 h
- Cmax ([2]; plasma, 1200 mg/m^2, Cmax, 1,200 mg/m^2, Day 1, 3 patients, plasma): 16000 ± 1910 ng/mL
- Cmax ([2]; plasma, 1200 mg/m^2, Cmax, 1,200 mg/m^2, Day 8, 3 patients, plasma): 8150 ± 4220 ng/mL
- Cmax ([2]; plasma, 1200 mg/m^2, Cmax, 1,200 mg/m^2, Day 29, 3 patients, plasma): 6710 ± 884 ng/mL
- half-life ([2]; plasma, 1200 mg/m^2, T1/2, 1,200 mg/m^2, Day 1, 3 patients, plasma): 8.33 ± 4.65 h
- half-life ([2]; plasma, 1200 mg/m^2, T1/2, 1,200 mg/m^2, Day 8, 3 patients, plasma): 2.78 ± 0.9 h
- half-life ([2]; plasma, 1200 mg/m^2, T1/2, 1,200 mg/m^2, Day 29, 3 patients, plasma): 4.84 ± 3.29 h
- Tmax ([2]; plasma, 1200 mg/m^2, Tmax, 1,200 mg/m^2, Day 1, 3 patients, plasma): 2.2 ± 0.8 h
- Tmax ([2]; plasma, 1200 mg/m^2, Tmax, 1,200 mg/m^2, Day 8, 3 patients, plasma): 1.8 ± 0.3 h
- Tmax ([2]; plasma, 1200 mg/m^2, Tmax, 1,200 mg/m^2, Day 29, 3 patients, plasma): 1.7 ± 0.3 h
- trough plasma level versus IC50 for VEGF and PDGF receptors cellular assay ([2]; steady-state exposure, 200 mg/m^2, IC50 from ref 16): above the IC50

Source: paper PMC3082041 (Cancer Chemotherapy and Pharmacology, 2010)
